This note sets out measurements from PubChem BioAssay (NCI).

Several values for one entry are separate records, joined by “and”; a condition that tells them apart may be missing. Equal entries are not always repeated.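 Test compounds were applied to cells in 96-well plates for 48 hours at 5 doses. The concentration for 50% growth inhibition is given as GI50. TGI marks complete inhibition of growth.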 A value given as a limit tells only on which side of the number the result lay.

Some test systems named below: HOP-62 NSCLC; HS 578T breast; MDA-MB-231 breast; MOLT-4 leukemia; NCI-H522 lung; OVCAR-4 ovarian; OVCAR-5 ovarian; SK-OV-3 ovarian; SNB-19 CNS; U251 CNS.
Holding throughout (test): growth of human tumour cells (NCI), 48 h

Regarding `Cc1ccc(NC(=O)Cc2ccc(/C=C/C(=O)c3ncc[nH]3)cc2)cc1`, the GI50 in the experiment with HOP-62 NSCLC is 5.24 µM; in the experiment with HS 578T breast, 13.6 µM; in the experiment on MDA-MB-231 breast, 9.46 µM; with MOLT-4 leukemia it was 5.33 µM; in the experiment on NCI-H522 lung it was 4.54 µM; with OVCAR-4 ovarian it was 10.4 µM. Besides, the GI50 in the experiment on OVCAR-5 ovarian was 6.84 µM; with SK-OV-3 ovarian it was 12.8 µM; with SNB-19 CNS, 6.65 µM; with U251 CNS it was 1.59 µM. In addition, the TGI was 21.6 µM with HOP-62 NSCLC; over 25 µM with HS 578T breast; over 25 µM in the experiment on MDA-MB-231 breast; over 25 µM in the experiment on MOLT-4 leukemia; 20.5 µM in the experiment with NCI-H522 lung; over 25 µM in the experiment with OVCAR-4 ovarian. The TGI with OVCAR-5 ovarian, in the experiment on SK-OV-3 ovarian, with SNB-19 CNS and in the experiment on U251 CNS was over 25 µM in each case.

Regarding `S=C(N/N=C(/c1ccccc1)c1ccccn1)N1CCCCC1`, the GI50 in the experiment with HOP-62 NSCLC was under 0.001 µM; in the experiment on HS 578T breast it was 1.3 µM; with MDA-MB-231 breast, under 0.001 µM; with MOLT-4 leukemia it was under 0.001 µM; with NCI-H522 lung, 0.422 µM; in the experiment on OVCAR-4 ovarian it was 0.119 µM. The GI50 in the experiment on OVCAR-5 ovarian was under 0.001 µM; in the experiment on SK-OV-3 ovarian it was under 0.001 µM; with SNB-19 CNS, 1.1 µM; with U251 CNS, under 0.001 µM. Besides, the TGI in the experiment with HOP-62 NSCLC is 2.33 µM and 2.78 µM; in the experiment with HS 578T breast, 6.74 µM and 5.88 µM; in the experiment on MDA-MB-231 breast, 2.42 µM and 2.21 µM; in the experiment on NCI-H522 lung, 3.13 µM and 1.71 µM; with OVCAR-4 ovarian, 3.12 µM and 1.43 µM; in the experiment on OVCAR-5 ovarian, 2.49 µM and 2.11 µM. Further, the TGI with SK-OV-3 ovarian was 2.36 µM and 1.24 µM; in the experiment on SNB-19 CNS, 2.9 µM and 5.49 µM; with U251 CNS, 1.45 µM and 1.76 µM.

On to `Oc1ccc(CN2CCC(N3CCOCC3)CC2)c2cccnc12`, for which the GI50 was 42.7 µM in the experiment with HOP-62 NSCLC; 62.1 µM in the experiment with HS 578T breast; 47.9 µM in the experiment on MDA-MB-231 breast; 30.9 µM in the experiment on MOLT-4 leukemia; 26.5 µM with NCI-H522 lung; 22.9 µM with OVCAR-4 ovarian. Further, the GI50 in the experiment with OVCAR-5 ovarian is 86.9 µM; with SK-OV-3 ovarian, over 100 µM; in the experiment with SNB-19 CNS, 43.9 µM; in the experiment on U251 CNS it was 24.4 µM. For the same molecule, the TGI was over 100 µM in the experiment with HOP-62 NSCLC; over 100 µM with HS 578T breast; over 100 µM in the experiment on MDA-MB-231 breast; over 100 µM in the experiment with MOLT-4 leukemia; 61.2 µM in the experiment on NCI-H522 lung; over 100 µM in the experiment on OVCAR-4 ovarian. The TGI in the experiment with OVCAR-5 ovarian, in the experiment with SK-OV-3 ovarian, in the experiment with SNB-19 CNS and with U251 CNS was over 100 µM throughout.

On to `COc1cc2cc(C(=O)CCC(=O)O)sc2cc1OC`, for which the GI50 with HOP-62 NSCLC, in the experiment with HS 578T breast, in the experiment on MDA-MB-231 breast, in the experiment on MOLT-4 leukemia, with NCI-H522 lung and with OVCAR-4 ovarian was over 100 µM each time. Also, the GI50 was over 100 µM in the experiment with OVCAR-5 ovarian, 62.4 µM in the experiment with SK-OV-3 ovarian, over 100 µM with SNB-19 CNS and over 100 µM in the experiment on U251 CNS. The TGI with HOP-62 NSCLC, in the experiment on HS 578T breast, in the experiment on MDA-MB-231 breast, with MOLT-4 leukemia, with NCI-H522 lung and in the experiment with OVCAR-4 ovarian was over 100 µM each time. In addition, the TGI in the experiment on OVCAR-5 ovarian, in the experiment with SK-OV-3 ovarian, in the experiment with SNB-19 CNS and in the experiment on U251 CNS was over 100 µM throughout.

For the molecule `O=S(=O)(Cc1ccc(Cl)cc1Cl)c1ccc(Cl)cc1`, the GI50 in the experiment on HOP-62 NSCLC is 3.36 µM; in the experiment on HS 578T breast, 0.729 µM; in the experiment on MDA-MB-231 breast, 2.38 µM; in the experiment on MOLT-4 leukemia, 1.14 µM; in the experiment with NCI-H522 lung it was 0.282 µM; in the experiment on OVCAR-4 ovarian, 5.73 µM. The GI50 in the experiment on OVCAR-5 ovarian was 4.28 µM; in the experiment on SK-OV-3 ovarian it was 1.47 µM; with SNB-19 CNS it was 1.38 µM; in the experiment on U251 CNS, 0.496 µM. Moreover, the TGI in the experiment with HOP-62 NSCLC is over 100 µM; in the experiment on HS 578T breast, over 100 µM; in the experiment with MDA-MB-231 breast, over 61.6 µM; with MOLT-4 leukemia, over 100 µM; with NCI-H522 lung, 2.27 µM; with OVCAR-4 ovarian, over 100 µM. In addition, the TGI in the experiment on OVCAR-5 ovarian is over 100 µM; in the experiment on SK-OV-3 ovarian, over 57.7 µM; in the experiment with SNB-19 CNS, over 100 µM; in the experiment on U251 CNS it was over 100 µM.

Regarding `COC(=O)C1=C(C)NC(C)=C(C(=O)OC)C1/C=C(\Cl)c1ccc(Cl)c(Cl)c1`, the GI50 in the experiment with HOP-62 NSCLC is 16.3 µM; in the experiment on HS 578T breast, 12.2 µM; in the experiment on MDA-MB-231 breast, 11.9 µM; in the experiment on MOLT-4 leukemia it was 3.69 µM; with NCI-H522 lung, 16.6 µM; with OVCAR-4 ovarian it was 10.8 µM. Moreover, the GI50 was 16.8 µM with OVCAR-5 ovarian, 21.1 µM in the experiment with SK-OV-3 ovarian, 18.8 µM in the experiment on SNB-19 CNS and 14.1 µM in the experiment on U251 CNS. Further, the TGI in the experiment with HOP-62 NSCLC is 29.8 µM; in the experiment on HS 578T breast, 33.4 µM; with MDA-MB-231 breast, 25.3 µM; in the experiment on MOLT-4 leukemia it was 27.6 µM; in the experiment on NCI-H522 lung, 32.4 µM; in the experiment with OVCAR-4 ovarian it was 26.6 µM. The TGI in the experiment on OVCAR-5 ovarian is 30.4 µM; in the experiment on SK-OV-3 ovarian it was 49 µM; with SNB-19 CNS, 41.6 µM; in the experiment with U251 CNS, 27.1 µM.

Turning to `O=c1c2c3c(sc2n2c(-c4cc(-c5ccccc5)no4)nnc2n1Cc1ccccc1)CCCC3`, the GI50 in the experiment on HOP-62 NSCLC was 14.8 µM; in the experiment on HS 578T breast, 18.7 µM; in the experiment on MDA-MB-231 breast it was 4.94 µM; with MOLT-4 leukemia it was 3.72 µM; with NCI-H522 lung it was 3.4 µM; with OVCAR-4 ovarian it was 19.2 µM. Further, the GI50 in the experiment on OVCAR-5 ovarian is 91.2 µM; in the experiment with SK-OV-3 ovarian it was 38.4 µM; in the experiment on SNB-19 CNS, 31.8 µM; in the experiment with U251 CNS, 17.3 µM. Besides, the TGI in the experiment with HOP-62 NSCLC is 57 µM; in the experiment on HS 578T breast, over 94.7 µM; with MDA-MB-231 breast, 55.2 µM; with MOLT-4 leukemia, 32.7 µM; in the experiment on NCI-H522 lung, 28.1 µM; in the experiment on OVCAR-4 ovarian, over 100 µM. The TGI with OVCAR-5 ovarian, in the experiment with SK-OV-3 ovarian, with SNB-19 CNS and in the experiment with U251 CNS was over 100 µM in each case.
